According to patent US11286263B2, “Macrocyclic fluorine substituted indole derivatives” (The Broad Institute, Inc., priority 2017, dated 2022):
Where a name gives a salt, the structure may show the parent alone. Read-outs that look alike come from different tables or passages of the source.

Experiments:
SUDHL10 = experiment: Antiproliferation assay SUDHL10 (Assay 7); format: cell-based; conditions: Homo sapiens, SU-DHL10; SUDHL10 cells, 72 h, CellTiter-Glo; median; read-out: IC50 Antiproli SUDHL10 [M] (median)
Procedure: (§1) Assessment of the Anti-Proliferative Effect of Compounds in Different Cell Lines
(§2) The impact of compounds on the proliferation of different cell lines was assessed using the CellTiter-Glo® Luminescent Cell Viability reagent from Promega (G7573).
(§3) In parallel, cells were plated in a reference (day 0) plate for time zero determination.
(§4) Rim wells were excluded. The cells were incubated for 72 h hours in a humidified incubator at 37° C. The day 0 plate was measured by adding 30 μL/well of CTG solution (CellTiter-Glo® Luminescent Cell Viability reagent, Promega G7573) to time zero wells in the reference plate followed by a 10 minutes incubation and luminescence reading at 0.1 ms. using the PHERAstar FS microplate reader (BMG Labtech).
(§5) After 72 h incubation, the treated plates were measured in the same way as the day 0 plate mentioned above.

MCL1 protein = MCL1 protein (Homo sapiens (Human), UniProt Q07820); experiment: PIxEL: protein-protein interaction in permeabilized cells by ELISA (Assay 5); format: cell-based; conditions: permeabilized RKO cells, biotin-BIM BH3 peptide, median
Procedure: Assay 5 PI×EL: Protein-Protein Interaction in Permeabilized Cells by ELISA
Most MCL1 protein molecules are localized at the mitochondria outer membrane and sequester pro-apoptotic proteins through binding of their BCL2 homology domain 3 (BH3 domain). MEB buffer (150 mM mannitol, 10 mM HEPES pH 7.5, 50 mM KCl, 20 μM EDTA, 20 μM EGTA, 5 mM potassium succinate, 0.1% protease-free BSA (SIGMA) with low dose digitonin (0.002%) permeabilizes plasma membrane while leaves live mitochondria, where MCL1 maintains its native localization and conformation. Unlike biophysical assays (e.g. TR-FRET) that use truncated recombinant MCL1 protein, this assay uses full length endogenous MCL1 protein at mitochondria outer membrane. It measures the interaction between MCL1 protein and biotinylated BIM BH3 peptide. Compounds can compete with BIM BH3 peptide to bind to MCL1 protein. This serum free assay measures the affinity between MCL1 protein and compound in permeabilized cells, therefore it is not affected by serum binding and cell permeability, and can measure the intrinsic compound affinity.
On day 1, RKO colon cancer cell line cells were plated at 0.8 million cells/ml, 100 μl/well in 96-well flat bottom TC plates (Corning). MCL1 antibody (Santa Cruz sc-12756) were diluted at 200 fold (final concentration 1 μg/ml) in carbonate buffer (Thermo Fisher Scientific, pH 9.6), and 50 μl of diluted antibody was added to each well of high bind ELISA plates (SARSTEDT). Each plate was tapped to make sure liquid covering entire bottom of wells and incubate at 37° C. overnight.
On the second day, MCL1 antibody was washed from ELISA plate. 250 μl Odyssey® Blocking Buffer (PBS) (Li-Cor) was added to each well, incubated at room temperature for at least 1 hour, then washed once with 250 μl 1×PBST. Plates with RKO cells were gently washed once with 100 μl/well PBS, once with 100 μl/well MEB buffer without digitonin, then 100 μl of MEB buffer with 0.002% digitonin was gently added to each well. Compounds were added with HP Tecan compound dispenser in 3-fold dilution series, highest dose 30 μM, 10-dose per compound in quadruplicates. Biotin-BIM peptide (synthesized by 21st Century) was added with HP Tecan compound dispenser at 0.2 μM immediately after the addition of compounds. Plates were rocked for 1 hour at room temperature. Then MEB buffer was aspirated and 50 μl of CHAPS buffer (50 mM Tris-Cl, pH 7.4, 150 mM NaCl, 1% CHAPS, 1 mM EDTA, 1 mM EGTA, complete protease inhibitors (Roche), PhosSTOP (Roche)) was added to each well. Plates were rocked for 1 hour at 4° C., then 45 μl cell lysate from each well were transferred to ELISA plates coated with MCL1 antibody. Plates were incubated overnight in the cold room with rocking.
On the third day, ELISA plates were washed once with 250 μl 1×PBST. Streptavidin-poly-HRP (Thermo Fisher Scientific) was diluted to 20 ng/ml in Odyssey blocking buffer plus 0.05% Triton-100, and 100 μl was added to each well of the ELISA plate. Plates were incubated at room temperature for 1 hour with rocking, then washed with 100 μL 1×PBST for 3 times. Each SuperSignal ELISA Femto Maximum Sensitivity substrate was added to a 50-ml tube and mixed, then 100 μl of mixed substrate was added to each well. Plates were shaken for 1 minute then luminescence was measured by Envision plate reader […]. Signal of each well were normalized by no-compound control and no-cell control. IC50 was calculated using Graphic Pad PRISM software.

HMC-1-8 = experiment: Antiproliferation assay HMC-1-8 (Assay 7); format: cell-based
Procedure: as §1, §2, §3, §4, §5

MCL-1 = MCL-1 (Homo sapiens (Human), UniProt Q07820, K194A/K197A/R201A); experiment: Protein-compound interaction assay (SPR assay, Assay 8); format: binding; conditions: immobilized MBP-MCL-1, 25° C., geometric mean
Description: Assay 8 Protein-Compound Interaction Assay (SPR Assay)
The ability of the compounds described in this invention to bind to MCL-1 may be determined using surface plasmon resonance (SPR). This allows for the quantification of binding in terms of the equilibrium dissociation constant (KD [M]), as well as association and dissociation rate constants (kon [1/M 1/s] and koff [1/s], respectively). The measurements may be performed using Biacore® T200 or Biacore® S200 instruments (GE Healthcare).
For SPR measurements, recombinant MCL-1 (amino acids 173-321, N-terminal fused to Maltose Binding Protein (MBP) (SEQ ID 1) purchased from Beryllium (Bedford, Mass., USA)) was immobilized using standard amine coupling (Johnsson B et al, Anal Biochem. 1991 Nov. 1; 198(2):268-77). Briefly, carboxymethylated dextran biosensor chips (Series S Sensor Chip CMS, GE Healthcare) were activated with 1-ethyl-3-(3-dimethylaminopropyl)-carbodiimide hydrochloride (EDC) and N-hydroxysuccinimide (NHS) according to the supplier's instructions. MBP-MCL-1 was diluted in 1×PBS-P+ (GE Healthcare) and injected on the activated chip surface. Subsequently, a solution of 1 M ethanolamine-HCl (GE Healthcare) was injected to block unreacted groups, resulting in approximately 400-2500 response units (RU) of immobilized protein. A reference surface was generated by treatment with NHS-EDC and ethanolamine-HCl. […] For SPR binding-measurements, serial dilutions of compound (eight dilution steps, typically ranging from 0.2 nM up to 1 μM) were injected over immobilized protein. […] Compounds were injected for 60 s followed by a dissociation time of up to 1000 s.
The double-referenced sensorgrams were fit to a simple reversible Langmuir 1:1 reaction mechanism as implemented in the Biacore® T200 and S200 evaluation software (T200 evaluation software version 2.0 and S200 evaluation software version 1.0, GE Healthcare).

[1] = 72 h, HMC-1-8 cells, CellTiter-Glo, single determinations, read-out: IC50 Antiproli HMC-1-8

Chain of MCL-1 (Q07820 whole entry K194A/K197A/R201A, looked up): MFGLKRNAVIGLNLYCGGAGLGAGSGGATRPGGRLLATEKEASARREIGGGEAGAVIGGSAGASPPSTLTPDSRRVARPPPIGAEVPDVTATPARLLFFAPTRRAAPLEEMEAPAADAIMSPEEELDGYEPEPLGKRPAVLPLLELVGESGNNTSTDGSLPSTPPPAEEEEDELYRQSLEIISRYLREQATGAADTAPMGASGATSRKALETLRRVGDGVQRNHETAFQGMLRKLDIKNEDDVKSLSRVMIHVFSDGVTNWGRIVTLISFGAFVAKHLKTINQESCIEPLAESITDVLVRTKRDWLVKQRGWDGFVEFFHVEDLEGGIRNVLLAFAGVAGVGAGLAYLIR
Chain of MCL1 protein (Q07820 whole entry): as the sequence (Q07820 whole entry K194A/K197A/R201A, looked up) above, with A194K, A197K, A201R counted along it

IC50 (SUDHL10) [M]	IC50 (MCL1 protein) [µM]	Kd (MCL-1) [µM]	kon (MCL-1) [M⁻¹ s⁻¹]	koff (MCL-1; read-out: koff) [s⁻¹]	koff (MCL-1) [s⁻¹]	kon [1/M 1/s] (MCL-1)	SMILES	IC50 (HMC-1-8; [1]) [µM]	IC50 (HMC-1-8; HMC-1-8 cells, 72 h, CellTiter-Glo; single determinations; read-out: IC50 Antiproli HMC-1-8) [µM]
1.5e-06	–	–	–	–	–	–	Cc1c2c(nn1C)COCCCCn1c(C(=O)O)c(CCCOc3cccc4c3CCC4)c3ccc(F)c-2c31 (racemic) [Example 19, (rac)-1-(3-((2,3-dihydro-1H-inden-4-yl)oxy)propyl)-13-fluoro-11,12-dimethyl-4,5,6,7,9,11-hexahydropyrazolo[4′,3′:9,10][1]oxa[6]azacycloundecino[8,7,6-hi]indole-2-carboxylic acid]	–	–
–	1.4	0.0042	4.6e+06	0.019	–	–	Cc1c2c(nn1C)COCCCCn1c(C(=O)O)c(CCCOc3cccc4ccccc34)c3ccc(F)c-2c31 (single isomer, unassigned; enantiomer 1) [Example 3, 4-fluoro-2,3-dimethyl-7-[3-(naphthalen-1-yloxy)propyl]-2,10,11,12,13,15-hexahydropyrazolo-[4′,3′:9,10][1,6]oxazacycloundecino[8,7,6-hi]indole-8-carboxylic acid-N-ethylethanamine salt (enantiomer 1)]	6.11	–
1.5e-06	–	–	–	–	–	–	Cc1nn(C)c2c1-c1c(F)ccc3c(CCCOc4cccc5cc(F)ccc45)c(C(=O)O)n(c13)CCCCOC2 (racemic) [Example 32, (rac)-13-fluoro-1-(3-((6-fluoronaphthalen-1-yl)oxy)propyl)-10,12-dimethyl-4,5,6,7,9,10-hexahydropyrazolo[4′,3′:9,10][1]oxa[6]azacycloundecino[8,7,6-hi]indole-2-carboxylic acid]	–	–
–	1.34	0.0016	–	–	0.0072	4.4E6 1/M 1/s	CCc1c2c(nn1C)COCCCCn1c(C(=O)O)c(CCCOc3cccc4cc(F)ccc34)c3ccc(F)c-2c31 (single isomer, unassigned; enantiomer 1) [Example 22, 3-ethyl-4-fluoro-7-{3-[(6-fluoronaphthalen-1-yl)oxy]propyl}-2-methyl-2,10,11,12,13,15-hexahydropyrazolo[4′,3′:9,10][1,6]oxazacycloundecino[8,7,6-hi]indole-8-carboxylic acid-N-ethylethanamine salt (enantiomer 1)]	2.44	3.53
1.5e-06	–	–	–	–	–	–	Cc1c2c(nn1C)COCCCCn1c(C(=O)O)c(CCCOc3cccc4c3CCCC4)c3ccc(F)c-2c31 (racemic) [Example 18, (rac)-13-fluoro-11,12-dimethyl-1-(3-((5,6,7,8-tetrahydronaphthalen-1-yl)oxy)propyl)-4,5,6,7,9,11-hexahydropyrazolo[4′,3′:9,10][1]oxa[6]azacycloundecino[8,7,6-hi]indole-2-carboxylic acid]	–	–
–	2.38	0.0015	1.4e+07	0.021	–	–	CCc1nn(C)c2c1-c1c(F)ccc3c(CCCOc4cccc5cc(F)ccc45)c(C(=O)O)n(c13)CCCCOC2 (single isomer, unassigned; enantiomer 1) [Example 39, 3-ethyl-4-fluoro-7-{3-[(6-fluoronaphthalen-1-yl)oxy]propyl}-1-methyl-1,10,11,12,13,15-hexahydropyrazolo[4′,3′:9,10][1,6]oxazacycloundecino[8,7,6-hi]indole-8-carboxylic acid-N-ethylethanamine salt (enantiomer 1)]	3.17	–
